Experimental data reported in paper PMC8910560, “Screening of Novel Bioactive Peptides from Goat Casein: In Silico to In Vitro Validation” (International Journal of Molecular Sciences, 2022).
pIC50: −log10 of the molar value. Like-named read-outs stand apart in the source and are kept apart here. Ends that are not written are not given here.

Key:
[1] = design: method as in Contreras et al. (2013) [21]; details: ref Contreras et al. (2013) [21], cited from earlier work
ACE = details: cited from earlier work
[2] = target: T1, angiotensin-I converting enzyme (ACE) (Oryctolagus cuniculus, UniProt P12822); test: ACE inhibitory activity (iACE), fluorometric assay; type: biochemical
T1 construct: purchased Sigma-Aldrich
T1 sequence (P12822 34-1310): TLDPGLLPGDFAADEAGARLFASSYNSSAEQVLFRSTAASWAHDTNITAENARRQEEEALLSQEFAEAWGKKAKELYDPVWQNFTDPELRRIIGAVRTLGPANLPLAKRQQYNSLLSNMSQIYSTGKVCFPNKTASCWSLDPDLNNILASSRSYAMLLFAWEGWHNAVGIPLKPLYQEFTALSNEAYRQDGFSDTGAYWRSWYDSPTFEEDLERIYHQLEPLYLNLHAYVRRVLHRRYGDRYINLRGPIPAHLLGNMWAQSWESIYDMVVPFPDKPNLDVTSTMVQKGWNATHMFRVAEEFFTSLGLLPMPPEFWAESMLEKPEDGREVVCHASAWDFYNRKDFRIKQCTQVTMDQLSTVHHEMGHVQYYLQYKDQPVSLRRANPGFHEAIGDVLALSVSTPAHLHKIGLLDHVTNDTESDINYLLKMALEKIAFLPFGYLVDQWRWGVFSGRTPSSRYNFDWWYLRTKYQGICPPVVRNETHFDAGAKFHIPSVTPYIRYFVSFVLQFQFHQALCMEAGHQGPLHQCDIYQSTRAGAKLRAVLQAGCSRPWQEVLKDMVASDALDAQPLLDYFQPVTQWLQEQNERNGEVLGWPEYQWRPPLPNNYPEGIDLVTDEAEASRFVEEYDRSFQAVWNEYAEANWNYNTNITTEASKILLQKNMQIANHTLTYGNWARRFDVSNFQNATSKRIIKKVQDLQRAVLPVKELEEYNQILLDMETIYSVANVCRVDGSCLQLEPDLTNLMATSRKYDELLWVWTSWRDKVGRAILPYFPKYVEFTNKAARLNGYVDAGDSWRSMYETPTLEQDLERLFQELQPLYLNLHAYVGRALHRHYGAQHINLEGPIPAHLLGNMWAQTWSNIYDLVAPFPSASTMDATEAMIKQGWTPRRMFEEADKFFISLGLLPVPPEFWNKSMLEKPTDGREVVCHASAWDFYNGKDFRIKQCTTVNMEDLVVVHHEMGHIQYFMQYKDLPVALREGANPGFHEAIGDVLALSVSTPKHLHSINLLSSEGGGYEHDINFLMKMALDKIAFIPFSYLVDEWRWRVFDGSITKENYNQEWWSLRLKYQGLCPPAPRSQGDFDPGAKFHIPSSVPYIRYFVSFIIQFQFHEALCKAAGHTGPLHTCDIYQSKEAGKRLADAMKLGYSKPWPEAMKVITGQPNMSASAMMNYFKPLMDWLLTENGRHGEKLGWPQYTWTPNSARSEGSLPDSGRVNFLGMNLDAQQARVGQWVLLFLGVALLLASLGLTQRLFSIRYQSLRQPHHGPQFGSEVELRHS
Procedure: The ACE inhibitory activity was carried out using the fluorometric assay described by Coscueta, Brassesco, and Pintado (2021). The iACE of each sample (raw peptide and digested) was evaluated in duplicate and expressed as the concentration capable of inhibiting 50% of the enzymatic activity (IC50). To calculate the IC50 values, non-linear modeling was used, and the results were expressed as μg mL^−1 to inhibit 50% of the enzymatic activity.
Simulated gastrointestinal digestion was performed according to the method described by Madureira et al. (2011). Briefly, mouth digestion was mimicked by introducing the peptide sequence (2.5 mg/mL) into 15 mL of a 1 mM CaCl2 solution of 100 U mL^−1 α-amylase, under constant stirring (200 rpm) for 2 min at 37 °C, simulating masticatory movements. A 1 M NaHCO3 solution was used to adjust the pH of artificial saliva to 6.9. Subsequently, a pepsin solution, 25 mg/mL, was added with a ratio of 0.05 mL/mL of a sample at pH 2.0 (simulated gastric solution, stomach) following incubation for 2 h, 37 °C at 130 rpm orbital agitation for the gastric phase. Finally, intestinal digestion and absorption were simulated by adjusting pH values to […] using a 1 M NaHCO3 solution and adding a solution of bile salts and pancreatin to the digest.

[3] = whey-derived peptides, ref Tavares et al. (2011) [14]
[4] = antihypertensive oligopeptides encoded in various β-caseins
[5] = antihypertensive oligopeptides encoded in human β-casein
[6] = Digested (simulated gastrointestinal digestion, 50 µg mL^−1 in intestinal compartment)

AYFYPEL [casein-derived peptide studied by Contreras et al. (2013)]
antioxidant capacity ([1]; after the digestion process): 4.160 ± 0.623 µmol TE µmol^−1 peptide | antioxidant capacity ([1]; before digestion): 3.216 ± 0.114 µmol TE µmol^−1 peptide

DAQSAPLRVY
IC50 (ACE) (ACE; [3]): 12.2 µg/mL

DKVGINYW
IC50 (ACE) (ACE; [3]): 25.4 µg/mL

FAQTQSLVYP [antihypertensive oligopeptide encoded in various β-caseins]
IC50 (ACE) (ACE; [4]): 28.8 µg/mL

HPFAQTQQSLVYP [antihypertensive oligopeptide encoded in various β-caseins]
IC50 (ACE) (ACE; [4]): 36.1 µg/mL

HQPPQPL [HQPPQPL]
pIC50 ([2]; Raw peptide, mean ± SD): < 2.43

KGYGGVSLPEW
IC50 (ACE) (ACE; [3]): 0.7 µg/mL

LPQNILP [antihypertensive oligopeptide encoded in the human β-casein]
IC50 (ACE) (ACE; [5]): 36.5 µg/mL

MHQPPQPL [MHQPPQPL]
pIC50 ([2]; Raw peptide, mean ± SD): < 2.50

NPPHQIYP [antihypertensive oligopeptide encoded in the human β-casein]
IC50 (ACE) (ACE; [5]): 35.7 µg/mL

PAVVLP
IC50 (ACE) (ACE; [5]): 26.8 µg/mL

PHQIYP
IC50 (ACE) (ACE; [5]): 22.6 µg/mL

QSLVYPFTGPIPNSL [QSLVYPFTGPIPNSL]
pIC50 [2, 6]: < 4.51 | pIC50 ([2]; Raw peptide, mean ± SD): < 2.74

RYLGY
change of antioxidant activity ([1]; after the digestion process): reduced

SLVYP
IC50 (ACE) (ACE; [4]): 23.7 µg/mL

SWMHQPP [SWMHQPP]
pIC50 [2, 6]: < 4.25 | pIC50 ([2]; Raw peptide, mean ± SD): 3.60

TVYTKGRVMP [antihypertensive oligopeptide encoded in the human β-casein]
IC50 (ACE) (ACE; [5]): 43.7 µg/mL

VLPIP
IC50 (ACE) (ACE; [5]): 16.7 µg/mL

VLPYP
IC50 (ACE) (ACE; [5]): 21.1 µg/mL

VMP
IC50 (ACE) (ACE; [5]): 10.0 µg/mL

YPYQGPIVL [YPYQGPIVL]
pIC50 [2, 6]: < 4.32 | pIC50 ([2]; Raw peptide, mean ± SD): 2.97

YQKFPQY [casein-derived peptide studied by Contreras et al. (2013)]
change of antioxidant activity ([1]; after the digestion process): reduced
